Data taken from patent publication US10273233B2, “Inhibitors of influenza viruses replication” (Vertex Pharmaceuticals Incorporated, priority 2015, dated 2019).

Assays:
A/New Jersey/8/76 = assay: microbe, parasite or virus in culture; type: cell-based; conditions: Influenza A virus, MDCK
influenza A = assay: Influenza A mouse model, Compound (1) with or without oseltamivir; type: in vivo, Mice; conditions: for Percent Survival: 10 days
Description: Referring to FIG. 32, the potential for a positive therapeutic interaction between Compound (1) and oseltamivir against influenza A was explored in the mouse model. Mice were challenged with influenza A and dosed with vehicle (10 mL/kg 0.5% MC) or Compound (1) at 1, 3, 10, or 30 mg/kg BID alone, or in combination with 10 mg/kg BID oseltamivir. Therapy was started 48 hours post influenza A infection and continued for 10 days. All of the vehicle-treated controls succumbed to disease by study day 8 (Table 21).

A/New York/18/2009 = assay: 3-day CP assay in MDCK cells; type: cell-based; conditions: Influenza A virus
A/Weiss/43 = assay: 3-day CP assay in MDCK cells; type: cell-based; conditions: Influenza A virus
A/FM/1/47 = assay: 3-day CP assay in MDCK cells; type: cell-based; conditions: Influenza A virus
A/Virginia/01/2006 = assay: 3-day CP assay in MDCK cells; type: cell-based; conditions: Influenza A virus
A/Mexico/4108/2009 = assay: 3-day CP assay in MDCK cells; type: cell-based; conditions: Influenza A virus
B/Mass/3/66 = assay: 3-day CP assay in MDCK cells; type: cell-based; conditions: Influenza B virus

`CC(C)(C)[C@@H](CC(=O)O)Nc1nc(-c2c[nH]c3ncc(F)cc23)ncc1F` [Compound (1)] was tested, and the EC50 (A/New Jersey/8/76) was 0.96 nM, the protection from mortality (influenza A; 1 or 3 mg/kg BID Compound (1) with 10 mg/kg oseltamivir dosed BID) was “increased protection from mortality compared to the single agents” and the “Percent Survival” value (influenza A; Compound (1) 1 mg/kg BID alone, started +48 hours after infection) was 0%. The “Percent Survival” value (influenza A; Compound (1) 1 mg/kg BID in combination with oseltamivir 10 mg/kg BID, +48 hours) was 87.5%, the “Percent Survival” value (influenza A; Compound (1) 3 mg/kg BID alone, started +48 hours after infection) was 75% and the “Percent Survival” value (influenza A; Compound (1) 3 mg/kg BID in combination with oseltamivir 10 mg/kg BID, +48 hours) was 100%. The “Percent Survival” value (influenza A; Compound (1) 10 mg/kg BID alone, started +48 hours after infection) was 100%, the “Percent Survival” value (influenza A; Compound (1) 10 mg/kg BID in combination with oseltamivir 10 mg/kg BID, +48 hours) was 100% and the “Percent Survival” value (influenza A; Compound (1) 30 mg/kg BID alone, started +48 hours after infection) was 100%. The “Percent Survival” value (influenza A; Compound (1) 30 mg/kg BID in combination with oseltamivir 10 mg/kg BID, +48 hours) was 100%, the protection from mortality (influenza A; Compound (1) at 3 mg/kg BID alone) was “partial survival benefit” and the protection from mortality (influenza A; Compound (1) at 10 or 30 mg/kg BID alone) was “complete protection from mortality”. For the same molecule, the protection from mortality (influenza A; administered alone: Compound (1) 1 mg/kg BID, oseltamivir 10 mg/kg) was “failed to protect mice from influenza infection”, the “interaction of Compound (1) and oseltamivir combination” value (influenza A; combination with oseltamivir) was “synergistic effect” and the EC50 (A/New York/18/2009) was 1.4 nM. For the same molecule, the EC50 (A/Weiss/43) was 1.3 nM, the EC50 (A/FM/1/47) was 1.5 nM and the EC50 (A/Virginia/01/2006) was 12 nM. It also gave an EC50 (A/Mexico/4108/2009) of 3.7 nM and an EC50 (B/Mass/3/66) greater than 10000 nM.
